Source: patent publication US12534501B2, “Targeting deregulated Wnt signaling in cancer using stabilized alpha-helices of BCL-9” (Dana-Farber Cancer Institute, Inc., priority 2011, dated 2026)
Numbered stars: 1 amine (or outer) side, 2 acyl side, 3 side chain; on linkers, the order of the positions; unused ones are H or OH. Bridge positions count the residues as written; N and C are the ends. Square brackets hold non-standard residues; d marks the D form. Peptide text beside a SMILES is read from it. ξ: configuration not given here. ξαMeNle(6-ylidene) = CC(CCCC=[*:3])(N[*:1])C(=O)[*:2]; Nle = CCCC[C@H](N)C(=O)O

Key:
Format in all cases: cell-based
[1] = system: Wnt-dependent reporter activity (TOP-FLASH) in Colo320 cells; experiment: Wnt-specific TCF reporter gene assay (TOP-FLASH dual luciferase); details: Colo320, normalized to Renilla
Experimental: Luciferase activity was measured using the Dual Luciferase Reporter Assay System (Promega) as previously described (Sukhdeo, K. et al. Proc Natl Acad Sci USA 104, 7516-21 (2007)). To measure Wnt or NFκB reporter activity, Colo320 cells were transfected with TOP-FLASH, FOP-FLASH plasmid (Millipore Corporation) or NFκB luciferase reporter (Stratagene), along with an internal Renilla control plasmid (hRL-null). Transfection was accomplished using FuGENE (Roche) according to the manufacturer's protocol. The results were normalized to control Renilla activity. The reported data represent the average of three independent transfection experiments performed in triplicate. See results in FIG. 9, FIG. 10.

[2] = target: T1, β-catenin-BCL9/B9L complexes (Homo sapiens, UniProt P35222); experiment: Anti-BCL9 and B9L co-immunoprecipitation (disruption of native complexes); details: cellular treatment
T1 construct: SAH-BCL9B disrupts native β-catenin-BCL9/B9L complexes; endogenous in cells; Colo320 or MM1S by context
T1 sequence (P35222 2-781): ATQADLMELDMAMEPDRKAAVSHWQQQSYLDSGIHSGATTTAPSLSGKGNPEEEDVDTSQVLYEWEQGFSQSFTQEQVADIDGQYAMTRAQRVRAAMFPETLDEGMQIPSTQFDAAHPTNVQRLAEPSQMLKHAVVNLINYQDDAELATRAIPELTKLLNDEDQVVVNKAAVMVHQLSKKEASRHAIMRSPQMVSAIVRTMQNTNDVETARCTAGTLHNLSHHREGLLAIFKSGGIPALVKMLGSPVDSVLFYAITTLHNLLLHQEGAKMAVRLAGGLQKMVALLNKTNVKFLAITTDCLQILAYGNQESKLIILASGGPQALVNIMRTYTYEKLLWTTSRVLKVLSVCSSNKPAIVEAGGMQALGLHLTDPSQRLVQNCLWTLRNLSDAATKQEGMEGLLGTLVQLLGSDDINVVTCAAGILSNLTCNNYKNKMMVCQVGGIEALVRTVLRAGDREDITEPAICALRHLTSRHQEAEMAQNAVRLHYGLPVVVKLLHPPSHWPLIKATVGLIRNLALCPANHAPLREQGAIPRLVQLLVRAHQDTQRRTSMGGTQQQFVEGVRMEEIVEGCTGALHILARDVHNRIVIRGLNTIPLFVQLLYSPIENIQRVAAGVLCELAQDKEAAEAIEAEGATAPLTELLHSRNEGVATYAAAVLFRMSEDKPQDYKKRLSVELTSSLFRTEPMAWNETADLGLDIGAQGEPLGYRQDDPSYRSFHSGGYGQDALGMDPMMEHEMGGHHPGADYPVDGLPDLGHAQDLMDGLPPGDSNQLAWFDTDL
Excerpt: Western blotting, performed as described (Sukhdeo, K. et al. Proc Natl Acad Sci USA 104, 7516-21 (2007)), employed the following primary antibodies: BCL9 (6109) (Mani, M. et al. Cancer Res 69, 7577-86 (2009)), BCL9 (ab37305, Abcam), B9L (AF4967, R&D Systems), β-catenin (CAT5-H10, Zymed), FITC (ab19224, Abcam), Actin-HRP (C-11, Santa Cruz), Caspase3 (#9662, Cell Signaling), IκBα (#9242, Cell signaling), PARP (#9542, Cell Signaling), E-cadherin (#3195, Cell Signaling), and Lamin B (sc-6217, Santa Cruz). Horseradish peroxidase conjugated secondary antibodies were purchased from Santa Cruz and SouthernBiotech. Co-immunoprecipitation was performed as described (Walensky, L. D. et al. Science 305, 1466-70 (2004)). Briefly, cells were lysed in 50 mM Tris, 150 mM NaCl, and 1% CHAPS buffer containing protease and phosphatase inhibitors. Lysates were precleared with Protein A/G PLUS-agarose beads (Santa Cruz Biotechnologies) for 3 hours followed by overnight incubation at 4° C. with the respective antibodies. Agarose A/G beads were then added for 4 h, pelleted, and washed as described (Walensky, L. D. et al. Science 305, 1466-70 (2004)). See results in FIG. 1D, FIG. 1H, FIG. 2A, FIG. 8.

Colo320 cells = experiment: Cellular invasion assay, Matrigel Boyden chambers; details: 5 μM
Experimental: Angiogenesis was evaluated as previously described (Mani, M. et al. Cancer Res 69, 7577-86 (2009)) using an in vitro angiogenesis assay kit (Millipore). For capillary tube formation analysis, HUVEC were cultured on polymerized matrix gel and exposed to supernatant media collected from Colo320 or MM1S cells treated with vehicle (0.5% DMSO), SAH-BCL9B peptides (5 μM) for 24 h. The number of capillary tubes formed after 5 h treatment at 37° C. was determined by counting 5 randomly selected fields at 40× magnification, according to manufacture's instructions. HUVEC cultured in VEGF media and VEGF-free media were used as positive and negative controls, respectively. Cellular invasion assays were performed using Matrigel Boyden chambers (BD Biosciences) as described (Mani, M. et al. Cancer Res 69, 7577-86 (2009)). The reported data represent the average of three independent experiments performed in triplicate. See results in FIG. 3H-FIG. 3I.

Row | Molecule | reduction of Wnt-specific TCF reporter activity [1] | disruption of the association of β-catenin with BCL9 and B9L [2] | migration through Matrigel Boyden chambers (Colo320 cells)
1 | CCCC[C@H](NC(=O)[C@H](CCCNC(=N)N)NC(=O)[C@H](CCC(N)=O)NC(=O)[C@@H](NC(=O)C1(C)CCCC=CCCCC(C)(NC(=O)[C@H](CC(C)C)NC(=O)[C@H](CO)NC(=O)[C@H](CCCNC(=N)N)NC(=O)[C@H](CCC(=O)O)NC(=O)[C@H](CCCNC(=N)N)NC(=O)[C@H](Cc2c[nH]cn2)NC(=O)[C@H](CCC(=O)O)NC(=O)[C@H](CC(C)C)NC(=O)[C@H](CCC(N)=O)NC(=O)[C@H](CCC(=O)O)NC(=O)[C@H](CCC(N)=O)NC(=O)[C@H](CO)NC(=O)[C@H](CC(C)C)NC(C)=O)C(=O)N[C@@H]([C@@H](C)O)C(=O)N[C@@H](CC(C)C)C(=O)N[C@@H](CCCNC(=N)N)C(=O)N1)[C@@H](C)CC)C(=O)N[C@@H](CC(C)C)C(=O)N[C@@H](Cc1ccccc1)C(N)=O (stereo partly drawn) [SAH-BCL9B] (Ac-LSQEQLEHRERSL[ξαMeNle(6-ylidene)]TLR[ξαMeNle(6-ylidene)]IQR[Nle]LF-NH2; staple 14-18) | ~50% | dose-responsively disrupted | blocked the migration
2 | SAH-BCL9B(R359E): SEQ ID NO: 7: LSQEQLEHEERSLXTLRXIQRBLF; reverse polarity point mutant, negative control of SAH-BCL9B | no effect | no effect | no effect
